Measurements reported in PMC10385824, “Antiproliferative and Tubulin-Destabilising Effects of 3-(Prop-1-en-2-yl)azetidin-2-Ones and Related Compounds in MCF-7 and MDA-MB-231 Breast Cancer Cells” (Pharmaceuticals, 2023).
Read-outs that look alike come from different tables or passages of the source.

Columns and labels:
[1] = system: MDA-MB-231 human breast cancer cells; experiment: Alamar Blue cell viability (antiproliferative) assay; assay type: cell-based; conditions: 72 h, eight concentrations 0.001-50 μM, mean ± SEM, read-out: Antiproliferative Activity IC50
[2] = system: MCF-7 human breast cancer cells; experiment: cells
[3] = system: NCI 60 human cancer cell line panel; experiment: NCI 60 cell line screen (SRB), panel values; conditions: Homo sapiens, 60 cell
[4] = system: purified bovine brain tubulin; experiment: Tubulin polymerization assay (light scattering, BK006 kit); assay type: biochemical; conditions: compound at 10 μM; for Fold Reduction in Vmax: relative to vehicle
Experimental: Tubulin polymerization was monitored using the BK006 kit obtained from Cytoskeleton Inc. (Denver, CO, USA). The values reported represent the average values determined from two independent assays. Purified bovine brain tubulin (>99%, 3 mg/mL) in buffer containing PIPES (80 mM, pH 6.9), EGTA (0.5 mM), MgCl2 (2 mM), GTP (1 mM) and glycerol (10%) was incubated at 37 °C in vehicle (1% DMSO or EtOH (v/v) in dH2O) or with compounds 9h, 9q, 9s, 10h, 10p, 10r, 11h, 11p, 11r, 17f (all at 10 µM concentration); CA-4 (10 μM) was used as control. In this assay, light scattering is related to the concentration of polymerised microtubules produced. Tubulin assembly was monitored turbidimetrically at 340 nm at 37 °C in a Spectramax 340 PC spectrophotometer (Molecular Devices, Sunnyvale, CA, USA).

MDA-MB-231/ATCC = experiment: NCI-60 SRB screen, breast cancer; assay type: cell-based, human; conditions: Homo sapiens, MDA-MB-231, 48 h, read-out: Antiproliferative Activity IC50
[5] = MCF7, read-out: Antiproliferative Activity IC50, MCF-7, eight concentrations 0.001–50 μM, mean ± SEM, Table 3
[6] = MCF7, 72 h, read-out: Antiproliferative Activity IC50, MCF-7, 72 h, eight concentrations 1–50 μM, mean ± SEM, Table 2
[7] = MCF7, read-out: Antiproliferative Activity IC50
[8] = MCF7, read-out: Antiproliferative Activity IC50, MCF-7, eight concentrations 0.001–50 μM, mean ± SEM, Table 4
[9] = MCF7, 72 h, read-out: Antiproliferative Activity IC50, MCF-7, 72 h, eight concentrations (0.001–50 mM [sic]), mean ± SEM, Table 5

Row | melting point | IC50 [2, 8] | Compound | further results
1 |  |  | C=CC[C@@H]1C(=O)N(c2cc(OC)c(OC)c(OC)c2)[C@H]1c1ccc(C)cc1 (relative stereo) [10g, 3-Allyl-4-p-tolyl-1-olyl-1-(3,4,5-trimethoxyphenyl)azetidin-2-one] | IC50 [1]: 377 ± 60 nM; IC50 [2, 5]: 199 ± 30 nM
2 | 120 to 122 °C |  | COC(=O)C1=C(C(=O)OC)C(C2C(=O)N(c3cc(OC)c(OC)c(OC)c3)C2c2cccc3ccccc23)CC=C1 (single isomer, unassigned) [22a, Dimethyl-6-(1-(3,4,5-trimethoxyphenyl)-2-(naphthalen-1-yl)-4-oxoazetidin-3-yl)cyclohexa-1,3-diene-1,2-dicarboxylate] | 
3 | 129 to 130 °C |  | C=C(C)C1C(=O)N(c2cc(OC)c(OC)c(OC)c2)C1c1ccc([N+](=O)[O-])cc1 (stereo not drawn) [9a, 4-(4-Nitrophenyl)-1-(3,4,5-trimethoxyphenyl)-3-(prop-1-en-2-yl)azetidin-2-one] | IC50 [2, 6]: 4960 ± 690 nM
4 | 99 to 100 °C |  | C=C(C)C1C(=O)N(c2cc(OC)c(OC)c(OC)c2)C1c1ccc(F)cc1 (stereo not drawn) [9d, 4-(4-Fluorophenyl)-1-(3,4,5-trimethoxyphenyl)-3-(prop-1-en-2-yl)azetidin-2-one] | IC50 [2, 6]: 691 ± 100 nM
5 | 108 to 109 °C |  | C=C(C)C1C(=O)N(c2cc(OC)c(OC)c(OC)c2)C1c1ccccc1 (stereo not drawn) [9f, 4-Phenyl-1-(3,4,5-trimethoxyphenyl)-3-(prop-1-en-2-yl)azetidin-2-one] | IC50 [2, 6]: 494 ± 140 nM
6 | 100 to 102 °C |  | C=C(C)C1C(=O)N(c2cc(OC)c(OC)c(OC)c2)C1c1ccc(OCC)cc1 (stereo not drawn) [9i, 4-(4-Ethoxyphenyl)-1-(3,4,5-trimethoxyphenyl)-3-(prop-1-en-2-yl)azetidin-2-one] | IC50 [1]: 171 ± 11 nM; IC50 ([2]; MCF7, MCF-7): 81 nM
7 | 126 to 127 °C |  | C=C(C)C1C(=O)N(c2cc(OC)c(OC)c(OC)c2)C1c1ccc(Oc2ccccc2)cc1 (stereo not drawn) [9k, 4-(4-Phenoxyphenyl)-1-(3,4,5-trimethoxyphenyl)-3-(prop-1-en-2-yl)azetidin-2-one] | 
8 | 111 to 113 °C |  | C=C(C)C1C(=O)N(c2ccc(OC)cc2)C1c1ccccc1 (stereo not drawn) [9w, 1-(4-Methoxyphenyl)-4-phenyl-3-(prop-1-en-2-yl)azetidin-2-one] | IC50 [2, 6]: 33 ± 5 nM
9 | 104 to 105 °C |  | C=C(C)C1C(=O)N(c2ccccc2)C1c1ccc(OC)cc1 (stereo not drawn) [9x, 4-(4-Methoxyphenyl)-1-phenyl-3-(prop-1-en-2-yl)azetidin-2-one] | 
10 | 140 to 141 °C |  | C=CCC1C(=O)N(c2cc(OC)c(OC)c(OC)c2)C1c1ccc(OCc2ccccc2)cc1 (stereo not drawn) [10l, 3-Allyl-4-(4-benzyloxyphenyl)-1-(3,4,5-trimethoxyphenyl)azetidin-2-one] | IC50 [1]: 486 ± 60 nM; IC50 [2, 5]: 7390 ± 670 nM
11 | 133 to 134 °C | 784 ± 130 nM | C=C/C=C/C1C(=O)N(c2cc(OC)c(OC)c(OC)c2)C1c1ccc([N+](=O)[O-])cc1 (stereo not drawn) [11a, (E)-3-(Buta-1,3-dien-1-yl)-4-(4-nitrophenyl)-1-(3,4,5-trimethoxyphenyl)azetidin-2-one] | 
12 | 145 to 147 °C | 315 ± 40 nM | C=C/C=C/C1C(=O)N(c2cc(OC)c(OC)c(OC)c2)C1c1ccc(Cl)cc1 (stereo not drawn) [11b, (E)-3-(Buta-1,3-dien-1-yl)-4-(4-chlorophenyl)-1-(3,4,5-trimethoxyphenyl)azetidin-2-one] | 
13 | 153 to 155 °C | 428 ± 42 nM | C=C/C=C/C1C(=O)N(c2cc(OC)c(OC)c(OC)c2)C1c1ccc(Br)cc1 (stereo not drawn) [11c, (E)-4-(4-Bromophenyl)-3-(buta-1,3-dien-1-yl)-1-(3,4,5-trimethoxyphenyl)azetidin-2-one] | 
14 | 137 to 139 °C | 3210 ± 620 nM | C=C/C=C/C1C(=O)N(c2cc(OC)c(OC)c(OC)c2)C1c1ccc(F)cc1 (stereo not drawn) [11d, (E)-3-(Buta-1,3-dien-1-yl)-4-(4-fluorophenyl)-1-(3,4,5-trimethoxyphenyl)azetidin-2-one] | 
15 | 90 to 93 °C | 19400 ± 4030 nM | C=C/C=C/C1C(=O)N(c2cc(OC)c(OC)c(OC)c2)C1c1ccccc1 (stereo not drawn) [11f, (E)-3-(Buta-1,3-dien-1-yl)-4-phenyl-1-(3,4,5-trimethoxyphenyl)azetidin-2-one] | 
16 | 73 to 75 °C | 261 ± 50 nM | C=C/C=C/C1C(=O)N(c2cc(OC)c(OC)c(OC)c2)C1c1ccc(OCC)cc1 (stereo not drawn) [11i, (E)-3-(Buta-1,3-dien-1-yl)-4-(4-ethoxyphenyl)-1-(3,4,5-trimethoxyphenyl)-azetidin-2-one] | 
17 | 119 to 120 °C | 37900 ± 3800 nM | C=C/C=C/C1C(=O)N(c2cc(OC)c(OC)c(OC)c2)C1c1ccc(Oc2ccccc2)cc1 (stereo not drawn) [11k, (E)-3-(Buta-1,3-dien-1-yl)-4-(4-phenoxyphenyl)-1-(3,4,5-trimethoxyphenyl)azetidin-2-one] | 
18 | 113 to 114 °C | 576 ± 100 nM | C=C/C=C/C1C(=O)N(c2cc(OC)c(OC)c(OC)c2)C1c1cccc2ccccc12 (stereo not drawn) [11m, (E)-3-(Buta-1,3-dien-1-yl)-4-(naphthalen-1-yl)-1-(3,4,5-trimethoxyphenyl)azetidin-2-one] | 
19 |  |  | C=C/C=C/C1C(=O)N(c2cc(OC)c(OC)c(OC)c2)C1c1ccc(OC)c(O)c1 (stereo not drawn) [11p, (E)-3-(Buta-1,3-dien-1-yl)-4-(3-hydroxy-4-methoxyphenyl)-1-(3,4,5-trimethoxyphenyl)azetidin-2-one] | GI50 ([3]; read-out: Mean GI50, mean over all NCI 60 cell lines): 288 nM; CC50 ([3]; read-out: Mean LC50): 91200 nM; IC (TGI (total growth inhibition)) ([3]; read-out: Mean TGI): 31600 nM; Fold Reduction in Vmax [4]: 1.1; IC50 [2, 7]: 61 ± 8 nM; IC50 (MDA-MB-231/ATCC): 113 nM
20 | 88 to 90 °C | 511 ± 90 nM | C=C/C=C/C1C(=O)N(c2cc(OC)c(OC)c(OC)c2)C1c1ccc(OC)c([N+](=O)[O-])c1 (stereo not drawn) [11q, (E)-3-(Buta-1,3-dien-1-yl)-4-(4-methoxy-3-nitrophenyl)-1-(3,4,5-trimethoxyphenyl)azetidin-2-one] | 
21 | 103 to 104 °C |  | COc1ccc(C2C(CC=Cc3ccccc3)C(=O)N2c2cc(OC)c(OC)c(OC)c2)cc1 (stereo not drawn) [17a, 3-Cinnamyl-4-(4-methoxyphenyl)-1-(3,4,5-trimethoxyphenyl)azetidin-2-one] | IC50 [2, 9]: 332 ± 40 nM
22 |  |  | CCOC(=O)CC1C(=O)N(c2cc(OC)c(OC)c(OC)c2)C1c1ccc(OC)cc1 (stereo not drawn) [17f, Ethyl-2-(1-(3,4,5-trimethoxyphenyl)-2-(4-methoxyphenyl)-4-oxoazetidin-3-yl)acetate] | Vmax ([4]; 37 °C, 340 nm): 0.0038 mOD/min; Fold Reduction in Vmax [4]: 2.2; IC50 [2, 9]: 35 ± 3 nM
23 | 208 to 210 °C |  | COc1cc(N2C(=O)C(C3C=CCC4C(=O)N(c5ccccc5)C(=O)C43)C2c2ccc(Cl)cc2)cc(OC)c1OC (stereo not drawn) [21a, 4-(2-(4-Chlorophenyl)-1-(3,4,5-trimethoxyphenyl)-4-oxoazetidin-3-yl)-3a,4,7,7a-tetrahydro-2-phenyl-2H-isoindole-1,3-dione] | IC50 [2, 9]: 106000 ± 13900 nM
24 | 242 to 244 °C |  | COc1cc(N2C(=O)C(C3C=CCC4C(=O)OC(=O)C43)C2c2ccc(Br)cc2)cc(OC)c1OC (stereo not drawn) [21b, 4-(2-(4-Bromophenyl)-1-(3,4,5-trimethoxyphenyl)-4-oxoazetidin-3-yl)-3a,4,7,7a-tetrahydroisobenzofuran-1,3-dione] | IC50 [2, 9]: 96200 ± 13500 nM
25 | 224 to 225 °C |  | COc1ccc(C2C(C3C=CCC4C(=O)OC(=O)C43)C(=O)N2c2cc(OC)c(OC)c(OC)c2)cc1O (stereo not drawn) [21d, 3a,4,7,7a-Tetrahydro-4-(2-(3-hydroxy-4-methoxyphenyl)-1-(3,4,5-trimethoxyphenyl)-4-oxoazetidin-3-yl)isobenzofuran-1,3-dione] | IC50 [2, 9]: 91100 ± 14500 nM
26 |  |  | COc1cc(N2C(=O)C(CC3CO3)C2c2ccccc2)cc(OC)c1OC (stereo not drawn) [compound 20, 1-(3,4,5-Trimethoxyphenyl)-3-((oxiran-2-yl)methyl)-4-phenylazetidin-2-one] | IC50 [2, 9]: 51500 ± 5460 nM

Row | Compound | melting point | IC50 [2, 8] | further results
27 | C=C(C)C1C(=O)N(c2cc(OC)c(OC)c(OC)c2)C1c1ccc(OCCCC)cc1 (stereo not drawn) [9j, 4-(4-Butoxyphenyl)-1-(3,4,5-trimethoxyphenyl)-3-(prop-1-en-2-yl)azetidine-2-one] | 55 to 57 °C |  | 
28 | C=CCC1C(=O)N(c2cc(OC)c(OC)c(OC)c2)C1c1ccc(F)cc1 (stereo not drawn) [10d, 3-Allyl-4-(4-fluorophenyl)-1-(3,4,5-trimethoxyphenyl) azetidin-2-one] | 89 to 90 °C |  | IC50 [2, 7]: 33800 ± 9040 nM
29 | CCCCOc1ccc(C2C(C3C=CCC4C(=O)N(c5ccccc5)C(=O)C43)C(=O)N2c2cc(OC)c(OC)c(OC)c2)cc1 (stereo not drawn) [21c, 4-(2-(4-Butoxyphenyl)-4-oxo-1-(3,4,5-trimethoxyphenyl)azetidin-3-yl)-2-phenyl-3a,4,7,7a-tetrahydro-1H-isoindole-1,3(2H)-dione] | 163 to 164 °C |  | IC50 [2, 9]: 38600 ± 4900 nM
